Results as given in the supplement of paper PMC10307832.

What was measured:
Experiment in all cases: relative viability (nuclei count vs DMSO), 5 days (fraction); higher = more cells survive
[1] = compound: C1CC2=C(C1)C=C(C=C2)OC3=NC(=C4C(=N3)N(C=N4)CC5=CC=C(C=C5)C6=CC=CC=C6)N[C@@H](CC7=CC=CC=C7)CO [QS11] + NC(=O)Nc1cc(-c2cccc(F)c2)sc1C(=O)N[C@H]1CCCNC1 [AZD7762] (partner 0.2 µM)
How it was run: (§1)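 The day after seeding in 1536-well plates, lung cancer cell lines were treated by pin tool with a single drug, or with a fixed anchor-drug dose together with five library-drug doses (not always all listed) in √10 steps. After 5 days, a combined fix-and-stain solution (final 0.05% Triton X-100, 1% formaldehyde, 1 ug/ml Hoechst) was added. Nuclei counted on 4× images gave relative viability as treated counts over vehicle counts, reported as the median of duplicate plates.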

[2] = compound: CC1=C(C=C(C=C1)NC(=O)C2=CC(=CC=C2)C(C)(C)C#N)NC3=CC4=C(C=C3)N=CN(C4=O)C [AZ628] + CC1(C)CCC(c2ccc(Cl)cc2)=C(CN2CCN(c3ccc(C(=O)NS(=O)(=O)c4ccc(N[C@H](CCN5CCOCC5)CSc5ccccc5)c(S(=O)(=O)C(F)(F)F)c4)cc3)CC2)C1 [Navitoclax] (partner 0.5 µM)
How it was run: as §1

[3] = compound: CC1=C(C=C(C=C1)NC(=O)C2=CC(=CC=C2)C(C)(C)C#N)NC3=CC4=C(C=C3)N=CN(C4=O)C [AZ628] + NC(=O)Nc1cc(-c2cccc(F)c2)sc1C(=O)N[C@H]1CCCNC1 [AZD7762] (partner 0.2 µM)
How it was run: as §1

[4] = compound: C[As](C)SC[C@H](NC(=O)CC[C@H](N)C(=O)O)C(=O)NCC(=O)O [Darinaparsin] + CCNC(=O)c1noc(-c2cc(C(C)C)c(O)cc2O)c1-c1ccc(CN2CCOCC2)cc1 [Luminespib] (partner 0.01 µM)
How it was run: as §1

Q: LCLC-97TM1 was tested. Which relative viability ([1]; first compound 0.253 µM) did it give?
A: The relative viability was 0.192.

Q: What about the relative viability ([1]; first compound 2.53 µM) of the same cell line?
A: Its relative viability is 0.27.

Q: And the relative viability ([1]; first compound 8 µM)?
A: The relative viability was 0.418.

Q: What about the relative viability ([2]; first compound 0.08 µM) of the same cell line?
A: Its relative viability is 0.86.

Q: And the relative viability ([2]; first compound 0.253 µM)?
A: Its relative viability is 0.436.

Q: What about the relative viability ([2]; first compound 0.8 µM) of the same cell line?
A: The relative viability was 0.48.

Q: What about the relative viability ([2]; first compound 2.53 µM) of the same cell line?
A: Its relative viability is 0.437.

Q: And the relative viability ([2]; first compound 8 µM)?
A: Its relative viability is 0.255.

Q: And the relative viability ([3]; first compound 0.08 µM)?
A: The relative viability was 0.307.

Q: And the relative viability ([3]; first compound 0.253 µM)?
A: The relative viability was 0.331.

Q: What about the relative viability ([3]; first compound 0.8 µM) of the same cell line?
A: Its relative viability is 0.243.

Q: What about the relative viability ([3]; first compound 2.53 µM) of the same cell line?
A: The relative viability was 0.201.

Q: And the relative viability ([3]; first compound 8 µM)?
A: Its relative viability is 0.108.

Q: What about the relative viability ([4]; first compound 0.08 µM) of the same cell line?
A: The relative viability was 0.939.

Q: What about the relative viability ([4]; first compound 0.8 µM) of the same cell line?
A: The relative viability was 0.659.

Q: What about the relative viability ([4]; first compound 2.53 µM) of the same cell line?
A: The relative viability was 0.699.

Q: What about the relative viability ([4]; first compound 8 µM) of the same cell line?
A: Its relative viability is 0.888.
